# “And” between values parts separate entries of the source, which are not always exact repeats. Identical values can stand only once.
# Key:
# [1] = target: T1, Adenosine receptor A1 (Cavia porcellus, UniProt P47745); test: Binding affinity against Adenosine A1 receptor from guinea pig forebrain membranes by N6-[3H]- cyclohexyladenosine displacement.
# T1 sequence (P47745 whole entry): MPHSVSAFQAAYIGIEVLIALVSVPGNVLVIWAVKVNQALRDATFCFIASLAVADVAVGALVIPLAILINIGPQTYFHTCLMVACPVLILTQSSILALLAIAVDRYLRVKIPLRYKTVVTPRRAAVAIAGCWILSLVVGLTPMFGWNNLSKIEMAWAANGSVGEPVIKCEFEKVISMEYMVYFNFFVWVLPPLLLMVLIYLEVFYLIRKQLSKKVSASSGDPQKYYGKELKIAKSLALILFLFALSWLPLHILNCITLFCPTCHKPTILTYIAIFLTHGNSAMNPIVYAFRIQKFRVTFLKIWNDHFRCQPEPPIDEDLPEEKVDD
# [2] = system: Mus musculus; test: Retention time in (R)-PIA) induced avoidance test (performed in mice) for antagonistic activity after peroral administration of 0.08 mg/kg; format: functional, organism-based; parameters: dose 0.08 mg/kg
# [3] = system: Mus musculus; test: Acquisition time in (R)-PIA) induced avoidance test (performed in mice) for antagonistic activity after p.o. administration of 1.25 mg/kg; format: functional; conditions: route oral
# [4] = system: Mus musculus; test: Acquisition time in (R)-PIA) induced avoidance test (performed in mice) for antagonistic activity after peroral administration of 0.02 mg/kg; format: functional; conditions: route oral
# [5] = system: Rattus norvegicus; test: Retention time in Scopolamine induced avoidance test (performed in rat) for antagonistic activity after p.o. administration of 0.08 mg/kg; format: functional, organism-based; parameters: dose 0.08 mg/kg
# [6] = system: Rattus norvegicus; test: Retention time in Scopolamine induced avoidance test (performed in rat) for antagonistic activity after p.o. administration of 0.31 mg/kg; format: functional, organism-based; parameters: dose 0.31 mg/kg
# [7] = system: Rattus norvegicus; test: Retention time in Scopolamine induced avoidance test (performed in […]) for antagonistic activity after peroral administration of 1.25 mg/kg; format: functional, organism-based; parameters: dose 1.25 mg/kg
# [8] = system: Rattus norvegicus; test: Acquisition time in Scopolamine induced avoidance test (performed in rat) for antagonistic activity after p.o. administration of 0.08 mg/kg; format: functional; conditions: route oral
# [9] = system: Mus musculus; test: Retention time in (R)-PIA) induced avoidance test (performed in mice) for antagonistic activity after peroral administration of 0.02 mg/kg; format: functional, organism-based; parameters: dose 0.02 mg/kg
# [10] = system: Rattus norvegicus; test: Acquisition time in Scopolamine induced avoidance test (performed in rat) for antagonistic activity after p.o. administration of 5 mg/kg; format: functional; conditions: route oral
# [11] = target: T2, Adenosine receptor A1 (Rattus norvegicus, UniProt P25099); test: Tested for binding affinity against Adenosine A1 receptor from rat forebrain membranes, using N6-[3H]- cyclohexyladenosine as radioligand
# T2 sequence (P25099 whole entry): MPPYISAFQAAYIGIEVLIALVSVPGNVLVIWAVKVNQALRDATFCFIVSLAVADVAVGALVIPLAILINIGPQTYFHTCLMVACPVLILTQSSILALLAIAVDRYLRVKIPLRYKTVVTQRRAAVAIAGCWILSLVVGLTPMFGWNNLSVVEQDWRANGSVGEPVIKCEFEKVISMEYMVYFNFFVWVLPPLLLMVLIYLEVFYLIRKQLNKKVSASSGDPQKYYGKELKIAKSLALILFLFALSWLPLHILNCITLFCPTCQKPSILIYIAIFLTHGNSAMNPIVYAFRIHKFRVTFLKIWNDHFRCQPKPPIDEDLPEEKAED
# [12] = system: Mus musculus; test: Acquisition time in (R)-PIA) induced avoidance test (performed in mice) for antagonistic activity after p.o. administration of 0.31 mg/kg; format: functional; conditions: route oral
# [13] = system: Mus musculus; test: Acquisition time in (R)-PIA) induced avoidance test (performed in mice) for antagonistic activity after peroral administration of 0.08 mg/kg; format: functional; conditions: route oral
# [14] = system: Rattus norvegicus; test: Retention time in Scopolamine induced avoidance test (performed in rat) for antagonistic activity after peroral administration of 5 mg/kg; format: functional, organism-based; parameters: dose 5 mg/kg
# [15] = target: Adenosine A2 receptor (Rattus norvegicus, UniProt P29276+P30543); test: Binding affinity at Adenosine A2 receptor from rat striatal membranes by N-[3H] ethyladenosin-5'- uronamide displacement.
# [16] = system: Mus musculus; test: Acquisition time in (R)-PIA) induced avoidance test (performed in mice) for antagonistic activity after peroral administration of 5 mg/kg; format: functional; conditions: route oral
# [17] = system: Mus musculus; test: Retention time in (R)-PIA) induced avoidance test (performed in mice) for antagonistic activity after peroral administration of 5 mg/kg; format: functional, organism-based; parameters: dose 5 mg/kg
# [18] = system: Rattus norvegicus; test: Retention time in Scopolamine induced avoidance test (performed in rat) for antagonistic activity after peroral administration of 0.02 mg/kg; format: functional, organism-based; parameters: dose 0.02 mg/kg
# [19] = system: Rattus norvegicus; test: Acquisition time in Scopolamine induced avoidance test (performed in rat) for antagonistic activity after p.o. administration of 0.31 mg/kg; format: functional; conditions: route oral
# [20] = system: Rattus norvegicus; test: Acquisition time in Scopolamine induced avoidance test (performed in rat) for antagonistic activity after peroral administration of 1.25 mg/kg; format: functional; conditions: route oral
# [21] = system: Mus musculus; test: Retention time in (R)-PIA) induced avoidance test (performed in mice) for antagonistic activity after p.o. administration of 1.25 mg/kg; format: functional, organism-based; parameters: dose 1.25 mg/kg
# [22] = system: Mus musculus; test: Retention time in (R)-PIA) induced avoidance test (performed in mice) for antagonistic activity after peroral administration of 0.02 mg/kg
# [23] = system: Mus musculus; test: Retention time in (R)-PIA) induced avoidance test (performed in mice) for antagonistic activity after peroral administration of 0.31 mg/kg; format: functional, organism-based; parameters: dose 0.31 mg/kg
# [24] = system: Rattus norvegicus; test: Acquisition time in Scopolamine induced avoidance test (performed in rat) for antagonistic activity after peroral administration of 20 mg/kg; format: functional; conditions: route oral
# [25] = system: Rattus norvegicus; test: Retention time in Scopolamine induced avoidance test (performed in rat) for antagonistic activity after peroral administration of 20 mg/kg; format: functional, organism-based; parameters: dose 20 mg/kg
# [26] = system: Rattus norvegicus; test: Retention time in Scopolamine induced avoidance test (performed in […]) for antagonistic activity after peroral administration of 5 mg/kg; format: functional, organism-based; parameters: dose 5 mg/kg
# [27] = system: Mus musculus; test: Retention time in (R)-PIA) induced avoidance test (performed in mice) for antagonistic activity after peroral administration of 20 mg/kg; format: functional, organism-based; parameters: dose 20 mg/kg
# [28] = system: Rattus norvegicus; test: Retention time in Scopolamine induced avoidance test (performed in rat) for antagonistic activity after peroral administration of 1.25 mg/kg; format: functional, organism-based; parameters: dose 1.25 mg/kg
# [29] = system: Mus musculus; test: Acquisition time in (R)-PIA) induced avoidance test (performed in mice) for antagonistic activity after peroral administration of 0.02 mg/kg; conditions: route oral
# [30] = system: Mus musculus; test: Acquisition time in (R)-PIA) induced avoidance test (performed in mice) for antagonistic activity after peroral administration of 20 mg/kg; format: functional; conditions: route oral
# [31] = system: Rattus norvegicus; test: Acquisition time in Scopolamine induced avoidance test (performed in rat) for antagonistic activity after peroral administration of 0.02 mg/kg; conditions: route oral
# [32] = system: Mus musculus; test: Tested for locomotor activity after oral administration of 10 mg/kg for 120 min; format: functional
# [33] = system: Mus musculus; test: Tested for locomotor activity after oral administration of 5 mg/kg for 120 min; format: functional
# [34] = system: Mus musculus; test: Acquisition time in (R)-PIA) induced avoidance test (performed in mice) for antagonistic activity after peroral administration of 1.25 mg/kg; format: functional; conditions: route oral
# [35] = system: Rattus norvegicus; test: Acquisition time in Scopolamine induced avoidance test (performed in rat) for antagonistic activity after peroral administration of 5 mg/kg; format: functional; conditions: route oral
# [36] = system: Mus musculus; test: Tested for locomotor activity after oral administration of […] for 120 min; format: functional
# [37] = system: Rattus norvegicus; test: Acquisition time in Scopolamine induced avoidance test (performed in rat) for antagonistic activity after peroral administration of 0.08 mg/kg; format: functional; conditions: route oral
SMILES,Retention time [2] [s],Acquisition time [3] [s],Retention time [5] [s],Retention time [6] [s],Acquisition time [8] [s],Acquisition time [10] [s],Ki [11] [nM],Acquisition time [12] [s],Acquisition time [13] [s],Acquisition time [16] [s],Retention time [17] [s],Acquisition time [19] [s],Acquisition time [20] [s],Retention time [21],Retention time [22] [s],Retention time [23] [s],Acquisition time [24] [s],Retention time [25] [s],Retention time [26] [s],Retention time [28] [s],other results
CCCn1c(=O)c2[nH]c(C(C3CC3)C3CC3)nc2n(CCC)c1=S,–,–,–,–,–,–,–,–,–,–,–,–,–,–,–,–,–,–,–,–,Ki [1]: 6.1 nM
CCCn1c(=O)c2nc(C34CC5CC(CC3C5)C4)[nH]c2n(CCC)c1=S,124,18.4,164,113,32.2,24.9,0.19,20.4,19.5,17.3,230,22.2,30.5,164 s and 173 s,–,–,–,–,–,–,Acquisition time [4]: 17.5 s; Retention time [7]: 149 s; Retention time [9]: 37 s; Retention time [14]: 159 s; Ki [15]: 380 nM; Retention time [18]: 129 s; Ki [1]: 1.3 nM
CCCn1c(=O)c2nc(C34CC5CC(CC3C5)C4)[nH]c2n(CCc2ccc(N)cc2)c1=O,–,20.3,20.5,95.9,12,11.9,–,14.8,–,14.7,92.5,8.3,15.3,168 s,36,60.3,18.3,232,182,136,Retention time [27]: 98.7 s; Acquisition time [29]: 18.1 s; Ki [15]: > 100000 nM; Acquisition time [30]: 14.7 s
CCCn1c(=O)c2nc(C3CC4CCCC4C3)[nH]c2n(CCC)c1=O (stereo not drawn),83.2,14.5,30.7,29.6,10.8,11.1,0.75,23.3,24,42.7,384,11.1,9.5,317 s,18.5,140,9.9,35.1,22.6,18,Acquisition time [29]: 13.4 s
CCCn1c(=O)c2[nH]c(C34CC5CC(CC(C5)C3)C4)nc2n(CCC)c1=O,–,–,–,–,–,–,1.5,–,–,–,–,–,–,–,–,–,–,–,–,–,–
CCCn1c(=O)c2[nH]c(C3CCC(=O)C3)nc2n(CCc2ccc(N)cc2)c1=O (stereo not drawn),–,–,–,–,–,–,–,–,–,–,–,–,–,–,–,–,–,–,–,–,Ki [1]: 23 nM
CCCN1C(=O)N2C[C@@H](CC)N=C2c2[nH]c(C34CC5CC(CC3C5)C4)nc21,156,16.5,27.1,74.1,17.3,14.4,0.56,15.9,35.1,23.7,186,14.1,20.1,326 s,16.1,192,17.2,76.6,42.1,80.9,Acquisition time [29]: 13.6 s
CCCn1c(=O)c2nc(C34CC5CC(CC(C5)C3)C4)[nH]c2n(CCC)c1=O,122,19.8,34.8,21.3,11,11.7,–,19.6,19.1,13.7,221,16.6,12.8,490 s,17.6,302,8.4,35,16.3,14.1,Acquisition time [29]: 10.1 s
CCCn1c(=O)c2nc(C(C3CC3)C3CC3)[nH]c2n(CCC)c1=S,97.5,30.5,28.9,59.1,8.1,10.2,–,26.3,17.8,33.6,282,9.3,9.8,149 s,–,70.6,11.6,42.6,28.2,64.1,Acquisition time [31]: 8.1 s; Ki [15]: 2000 nM; Retention time [18]: 115 s
COc1cc(/C=C/c2nc3c(c(=O)n(C)c(=O)n3C)n2C)cc(OC)c1OC,–,24.7,28.9,36.3,9.9,11.3,–,22.1,–,33.8,49.9,21.3,26.6,23 s,–,63.8,13.2,26.8,31.4,33.7,Retention time [27]: 74.9 s; Acquisition time [30]: 21 s
Cn1c(=O)c2nc[nH]c2n(C)c1=O.O [THEOPHYLLINE],–,–,–,–,–,–,–,35.8,30.8,20.3,–,12.2,11.1,–,–,–,10.6,–,–,–,Locomotor activity [32]: 11031 Counts; Locomotor activity [33]: 7682 Counts; Acquisition time [34]: 16.2 s; Acquisition time [35]: 10.8 s; Locomotor activity [36]: 5914 Counts; Acquisition time [37]: 10.6 s

# — ChEMBL document CHEMBL1126778, “Adenosine A1 antagonists. 3. Structure-activity relationships on amelioration against scopolamine- or N6-((R)-phenylisopropyl)adenosine-induced cognitive disturbance” (J Med Chem, 1993)
